# Results: patent US10125118B2, “Heteroaryl compounds and their use as therapeutic drugs” (Dong-A Socio Holdings Co., Ltd., priority 2015, dated 2018)
# Molecular target: human c-MER catalytic domain (Homo sapiens (Human), UniProt Q12866)
# Assay: LanthaScreen TR-FRET kinase assay, c-MER
# Conditions: read-out: Mer TK inhibition (IC50); Biochemical IC50, TR-FRET, 10 uM ATP
# Sequence of human c-MER catalytic domain (Q12866 587-858): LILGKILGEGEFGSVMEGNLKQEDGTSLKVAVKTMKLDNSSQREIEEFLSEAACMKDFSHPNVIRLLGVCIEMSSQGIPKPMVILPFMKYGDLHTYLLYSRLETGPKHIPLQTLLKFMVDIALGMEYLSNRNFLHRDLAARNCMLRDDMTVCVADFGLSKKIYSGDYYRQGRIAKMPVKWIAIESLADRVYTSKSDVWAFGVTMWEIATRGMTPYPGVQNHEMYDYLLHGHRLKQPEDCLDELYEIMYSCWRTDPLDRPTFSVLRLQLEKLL
row,SMILES,IC50 [µM]
1,"Cn1cc(-c2cnc(N)c(C(=O)N[C@H]3CCC[C@@H]3OCc3cc(F)c(F)cc3F)c2)cn1 (relative stereo) [Example 50, 2-amino-5-(1-methyl-1H-pyrazol-4-yl)-N-(trans-2-((2,4,5-trifluorobenzyl)oxy)cyclopentyl)nicotinamide]",> 1
2,"Cn1cc(-c2cnc(N)c(C(=O)N[C@H]3CCC[C@@H]3OCc3ccccc3-c3ccccc3)c2)cn1 (relative stereo) [Example 66, N-(trans-2-([1,1′-biphenyl]-2-ylmethoxy)cyclopentyl)-2-amino-5-(1-methyl-1H-pyrazol-4-yl)nicotinamide]",> 1
3,"Cn1cc(-c2cnc(N)c(C(=O)N[C@H]3CCC[C@H]3O)c2)cn1 (relative stereo) [Example 70, 2-amino-N-(cis-2-hydroxycyclopentyl)-5-(1-methyl-1H-pyrazol-4-yl)nicotinamide]",> 1
4,"CN(Cc1ccccc1)[C@H]1CCC[C@@H]1NC(=O)c1cc(-c2cnn(C)c2)cnc1N (relative stereo) [Example 76, 2-amino-N-(trans-2-(benzyl(methyl)amino)cyclopentyl)-5-(1-methyl-1H-pyrazol-4-yl)nicotinamide]",> 1
5,"Cn1cc(-c2cnc(N)c(C(=O)N[C@@H]3[C@@H](COc4ccccc4)CCC3(F)F)c2)cn1 (relative stereo) [Example 79, 2-amino-N-(trans-2,2-difluoro-5-(phenoxymethyl)cyclopentyl)-5-(1-methyl-1H-pyrazol-4-yl)nicotinamide]",> 1
6,"Cn1cc(-c2cnc(N)c(C(=O)N[C@H]3COC[C@@H]3N3CCOCC3)c2)cn1 (relative stereo) [Example 90, 2-amino-5-(1-methyl-1H-pyrazol-4-yl)-N-(trans-4-morpholinotetrahydrofuran-3-yl)nicotinamide]",> 1
7,"Cn1cc(-c2cnc(N)c(C(=O)N[C@H]3COC[C@@H]3N3CCCC3)c2)cn1 (relative stereo) [Example 91, 2-amino-5-(1-methyl-1H-pyrazol-4-yl)-N-(trans-4-(pyrrolidin-1-yl)tetrahydrofuran-3-yl)nicotinamide]",> 1
8,"Cn1cc(-c2cnc(N)c(C(=O)N[C@H]3COC[C@H]3O)c2)cn1 (relative stereo) [Example 92, 2-amino-N-(cis-4-hydroxytetrahydrofuran-3-yl)-5-(1-methyl-1H-pyrazol-4-yl)nicotinamide]",> 1
9,"CC(C)N1C[C@H](NC(=O)c2cc(-c3cnn(C)c3)cnc2N)[C@@H](OCc2ccccc2)C1 (relative stereo) [Example 94, 2-amino-N-(trans-4-(benzyloxy)-1-isopropylpyrrolidin-3-yl)-5-(1-methyl-1H-pyrazol-4-yl)nicotinamide]",> 1
10,"Cn1cc(-c2cnc(N)c(C(=O)N[C@H]3CCC[C@@H]3OCc3cccc([N+](=O)[O-])c3)c2)cn1 [Example 30, 2-amino-5-(1-methyl-1H-pyrazol-4-yl)-N-((1S,2S)-2-((3-nitrobenzyl)oxy)cyclopentyl)nicotinamide]",> 1
11,"Cn1cc(-c2cnc(N)c(C(=O)N[C@H]3CCC[C@@H]3OCc3cccc(C#N)c3)c2)cn1 [Example 31, 2-amino-N-((1S,2S)-2-((3-cyanobenzyl)oxy)cyclopentyl)-5-(1-methyl-1H-pyrazol-4-yl)nicotinamide]",> 1
12,"Cn1cc(-c2cnc(N)c(C(=O)N[C@H]3CCC[C@@H]3OCc3cccc(O)c3)c2)cn1 [Example 32, 2-amino-N-((1S,2S)-2-((3-hydroxybenzyl)oxy)cyclopentyl)-5-(1-methyl-1H-pyrazol-4-yl)nicotinamide]",> 1
13,"COc1ccc(CO[C@H]2CCC[C@@H]2NC(=O)c2cc(-c3cnn(C)c3)cnc2N)cc1 [Example 35, 2-amino-N-((1S,2S)-2-((4-methoxybenzyl)oxy)cyclopentyl)-5-(1-methyl-1H-pyrazol-4-yl)nicotinamide]",> 1
14,"COc1ccc(CO[C@@H]2CCC[C@H]2NC(=O)c2cc(-c3cnn(C)c3)cnc2N)cc1 [Example 36, 2-amino-N-((1R,2R)-2-((4-methoxybenzyl)oxy)cyclopentyl)-5-(1-methyl-1H-pyrazol-4-yl)nicotinamide]",> 1
15,"COC(=O)c1cccc(CO[C@H]2CCC[C@@H]2NC(=O)c2cc(-c3cnn(C)c3)cnc2N)c1 [Example 42, methyl 3-((((1S,2S)-2-(2-amino-5-(1-methyl-1H-pyrazol-4-yl)nicotinamido)cyclopentyl)oxy)methyl)benzoate]",> 1
16,"Cn1cc(-c2cnc(N)c(C(=O)N[C@H]3CCC[C@@H]3OCc3cccc(Br)c3)c2)cn1 [Example 51, 2-amino-N-((1S,2S)-2-((3-bromobenzyl)oxy)cyclopentyl)-5-(1-methyl-1H-pyrazol-4-yl)nicotinamide]",> 1
17,"COC(=O)CNC(=O)c1cccc(CO[C@H]2CCC[C@@H]2NC(=O)c2cc(-c3cnn(C)c3)cnc2N)c1 [Example 55, methyl (3-((((1S,2S)-2-(2-amino-5-(1-methyl-1H-pyrazol-4-yl)nicotinamido)cyclopentyl)oxy)methyl)benzoyl)glycinate]",> 1
18,"Cn1cc(-c2cnc(N)c(C(=O)N[C@H]3CCC[C@@H]3OCc3cccc(C(=O)NCCO)c3)c2)cn1 [Example 56, 2-amino-N-((1S,2S)-2-((3-((2-hydroxyethyl)carbamoyl)benzyl)-oxy)cyclopentyl)-5-(1-methyl-1H-pyrazol-4-yl)nicotinamide]",> 1

row,SMILES,IC50 [µM]
1,"Cn1cc(-c2cnc(N)c(C(=O)N[C@H]3CCC[C@@H]3OCc3cccc(NC(=O)C4CCNCC4)c3)c2)cn1 [Example 57, 2-amino-5-(1-methyl-1H-pyrazol-4-yl)-N-((1S,2S)-2-((3-(piperidine-4-carboxamido)benzyl)oxy)cyclopentyl)nicotinamide]",> 1
2,"C[C@H](N)C(=O)Nc1cccc(CO[C@H]2CCC[C@@H]2NC(=O)c2cc(-c3cnn(C)c3)cnc2N)c1 [Example 58, 2-amino-N-((1S,2S)-2-((3-((S)-2-aminopropanamido)benzyl)oxy)-cyclopentyl)-5-(1-methyl-1H-pyrazol-4-yl)nicotinamide]",> 1
3,"CC(=O)N[C@@H](C)C(=O)Nc1cccc(CO[C@H]2CCC[C@@H]2NC(=O)c2cc(-c3cnn(C)c3)cnc2N)c1 [Example 59, N-((1S,2S)-2-((3-((S)-2-acetamidopropanamido)benzyl)oxy)-cyclopentyl)-2-amino-5-(1-methyl-1H-pyrazol-4-yl)nicotinamide]",> 1
4,"Cn1cc(-c2cnc(N)c(C(=O)N[C@H]3CCC[C@@H]3OCc3ccc(-n4nccn4)cc3)c2)cn1 [Example 62, N-((1S,2S)-2-((4-(2H-1,2,3-triazol-2-yl)benzyl)oxy)cyclopentyl)-2-amino-5-(1-methyl-1H-pyrazol-4-yl)nicotinamide]",> 1
5,"Cn1cc(-c2cnc(N)c(C(=O)N[C@H]3CCC[C@@H]3O)c2)cn1 [Example 69, 2-amino-N-((1S,2S)-2-hydroxycyclopentyl)-5-(1-methyl-1H-pyrazol-4-yl)nicotinamide]",> 1
6,"CCNc1ncc(-c2cnn(C)c2)cc1C(=O)N[C@H]1CCC[C@@H]1OCc1ccccc1 [Example 71, N-((1S,2S)-2-(benzyloxy)cyclopentyl)-2-(ethylamino)-5-(1-methyl-1H-pyrazol-4-yl)nicotinamide]",> 1
7,"Cc1ccc(CNc2ncc(-c3cnn(C)c3)cc2C(=O)N[C@H]2CCC[C@@H]2OCc2ccccc2)cc1C [Example 72, N-((1S,2S)-2-(benzyloxy)cyclopentyl)-2-((3,4-dimethylbenzyl-)amino)-5-(1-methyl-1H-pyrazol-4-yl)nicotinamide]",> 1
8,"Cn1cc(-c2cnc(N)c(C(=O)N[C@H]3CCC4(OCCO4)[C@@H]3OCc3ccccc3)c2)cn1 [Example 73, 2-amino-N-((6R,7S)-6-(benzyloxy)-1,4-dioxaspiro[4.4]nonan-7-yl)-5-(1-methyl-1H-pyrazol-4-yl)nicotinamide]",> 1
9,"Cn1cc(-c2cnc(N)c(C(=O)N[C@H]3CCC[C@@H]3COc3cccc(C(=O)N4CCCCC4)c3)c2)cn1 [Example 83, 2-amino-5-(1-methyl-1H-pyrazol-4-yl)-N-((1S,2S)-2-((3-(piperidine-1-carbonyl)phenoxy)methyl)cyclopentyl)nicotinamide]",> 1
10,"C[C@H](CNC(=O)c1cc(-c2cnn(C)c2)cnc1N)OCc1ccccc1 [Example 95, (R)-2-amino-N-(2-(benzyloxy)propyl)-5-(1-methyl-1H-pyrazol-4-yl)nicotinamide]",> 1
11,"C[C@@H](CNC(=O)c1cc(-c2cnn(C)c2)cnc1N)OCc1ccccc1 [Example 96, (S)-2-amino-N-(2-(benzyloxy)propyl)-5-(1-methyl-1H-pyrazol-4-yl)nicotinamide]",> 1
12,"C[C@@H](COCc1ccccc1)NC(=O)c1cc(-c2cnn(C)c2)cnc1N [Example 97, (S)-2-amino-N-(1-(benzyloxy)propan-2-yl)-5-(1-methyl-1H-pyrazol-4-yl)nicotinamide]",> 1
13,"C[C@H](COCc1ccccc1)NC(=O)c1cc(-c2cnn(C)c2)cnc1N [Example 98, (R)-2-amino-N-(1-(benzyloxy)propan-2-yl)-5-(1-methyl-1H-pyrazol-4-yl)nicotinamide]",> 1
14,"Cn1cc(-c2cnc(N)c(C(=O)NC(C)(C)COCc3ccccc3)c2)cn1 [Example 99, 2-amino-N-(1-(benzyloxy)-2-methylpropan-2-yl)-5-(1-methyl-1H-pyrazol-4-yl)nicotinamide]",> 1
15,"Cc1ccc(COC[C@@H](C)NC(=O)c2cc(-c3cnn(C)c3)cnc2N)cc1C [Example 100, (R)-2-amino-N-(1-((3,4-dimethylbenzyl)oxy)propan-2-yl)-5-(1-methyl-1H-pyrazol-4-yl)nicotinamide]",> 1
16,"C[C@H](COCc1ccc(Cl)cc1)NC(=O)c1cc(-c2cnn(C)c2)cnc1N [Example 102, (R)-2-amino-N-(1-((4-chlorobenzyl)oxy)propan-2-yl)-5-(1-methyl-1H-pyrazol-4-yl)nicotinamide]",> 1
17,"C[C@@H](CNC(=O)c1cc(-c2cnn(C)c2)cnc1N)OCc1ccc(Cl)cc1 [Example 103, (S)-2-amino-N-(2-((4-chlorobenzyl)oxy)propyl)-5-(1-methyl-1H-pyrazol-4-yl)nicotinamide]",> 1
